Results on 29 compounds are retold here after ChEMBL document CHEMBL1134870, “Design and synthesis of novel inhibitors of gelatinase B” (Bioorg Med Chem Lett, 2002).

Where only a bound is given, the exact number is not on record here.

The term inhibition denotes how much of the control response was suppressed. High values mean strong suppression, low ones little suppression. By IC50 is commonly meant the concentration that inhibits the measured activity by half.

Sequence of Matrix metalloproteinase-9 (Mus musculus) (P41245 whole entry): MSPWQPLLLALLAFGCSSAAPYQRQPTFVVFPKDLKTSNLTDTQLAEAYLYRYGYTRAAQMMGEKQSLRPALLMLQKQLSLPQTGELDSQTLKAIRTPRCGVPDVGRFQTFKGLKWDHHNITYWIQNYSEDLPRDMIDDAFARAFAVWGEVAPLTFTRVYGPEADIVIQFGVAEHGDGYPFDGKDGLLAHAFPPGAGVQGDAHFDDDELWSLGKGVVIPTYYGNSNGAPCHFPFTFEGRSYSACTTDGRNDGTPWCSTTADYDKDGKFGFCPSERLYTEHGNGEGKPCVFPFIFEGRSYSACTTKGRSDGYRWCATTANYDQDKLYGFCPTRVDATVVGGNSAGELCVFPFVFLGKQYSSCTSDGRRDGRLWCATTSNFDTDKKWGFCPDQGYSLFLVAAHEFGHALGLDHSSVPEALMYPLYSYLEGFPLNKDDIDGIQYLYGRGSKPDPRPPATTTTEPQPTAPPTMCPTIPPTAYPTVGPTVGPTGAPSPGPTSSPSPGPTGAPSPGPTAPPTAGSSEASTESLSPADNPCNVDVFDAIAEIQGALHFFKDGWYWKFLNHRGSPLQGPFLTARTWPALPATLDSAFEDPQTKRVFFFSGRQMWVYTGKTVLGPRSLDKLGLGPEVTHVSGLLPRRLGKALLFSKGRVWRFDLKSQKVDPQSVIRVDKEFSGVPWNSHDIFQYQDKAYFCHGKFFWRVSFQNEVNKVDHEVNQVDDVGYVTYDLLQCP

One assay has as its target Matrix metalloproteinase-9 (Mus musculus) (UniProt P41245). Nature of the assay: Inhibitory activity against murine gelatinase B at 5 mM was determined.
`NCc1ccccn1` came in with an inhibition of 75%.
As for `Nc1ccccc1N`, the inhibition was 10%.
`CC(=O)C1CCCC1=O` (centres undefined) gave an inhibition of 76%.
As to `O=C(O)c1ccccc1`, the inhibition was < 5%.
For `NCCN`, the inhibition was < 5%.
Turning to `NCc1nc2ccccc2[nH]1`, the inhibition worked out at 65%.
Same read-out and setting: the value for `CC(=O)Nc1nc(C)cs1` was < 5%; that for `CCNCCN` was < 5%; that for `OCc1nc2ccccc2[nH]1` was 26%.
Consider `OCc1nc2ccccc2s1`, for which the inhibition stood at 85%.
For `NCCc1ccccn1`, the inhibition was < 5%.
As for `NCCNCCN`, the inhibition was < 5%.
Turning to `CC(=O)NO`, the inhibition was < 5%.
Regarding `Oc1ccccn1`, the inhibition was < 5%.

The target in a further assay is Matrix metalloproteinase-9 (Mus musculus, UniProt P41245). Nature of the assay: Inhibitory concentration was determined against murine gelatinase B.
Sequence of Matrix metalloproteinase-9 (P41245 whole entry): as above
Take `NCc1nc2ccc(NC(=O)c3ccccc3OCc3ccccc3)cc2[nH]1`: the midpoint of inhibition, the IC50, lay at 48 µM.
`NCc1nc2ccc(NCc3ccccc3OCc3ccccc3)cc2[nH]1` displayed a concentration for half-maximal inhibition (IC50) of 13 µM.
For `OCc1nc2cc(NCc3ccccc3OCc3ccccc3)ccc2[nH]1`, the concentration for half-maximal inhibition (IC50) was > 100 µM.
Consider `NCc1nc2cc(N)ccc2[nH]1`, for which the concentration for half-maximal inhibition (IC50) was > 500 µM.
Consider `NCc1nc2cc(NC(=O)/C=C/c3cccnc3)ccc2[nH]1`, for which the half-maximal inhibitory concentration (IC50) was determined as 85 µM.
In the case of `NCc1nc2ccc(NCc3ccccc3Sc3ccccc3)cc2[nH]1`, the half-maximal inhibitory concentration (IC50) was 56 µM.
The same measure, in the same setting: to `NCc1nc2ccc(NCc3ccc(OCc4ccccc4)cc3)cc2[nH]1` belongs 51 µM; to `NCc1cc2cc(NCc3ccccc3OCc3ccccc3)ccc2[nH]1`, 72 µM; to `CC(=O)NCc1nc2ccc(NCc3ccccc3OCc3ccccc3)cc2[nH]1`, > 100 µM.
`NCc1nc2cc(NC(=O)/C=C/c3c(F)cccc3F)ccc2[nH]1` had an IC50 of 75 µM.
Consider `CC(=O)N(Cc1ccccc1OCc1ccccc1)c1ccc2nc(CN)[nH]c2c1`, for which the IC50 came out at 83 µM.
In the case of `Cc1nc2cc(NCc3ccccc3OCc3ccccc3)ccc2[nH]1`, the IC50 was > 300 µM.
`NCc1nc2ccc(NCC3CC=CCC3)cc2[nH]1` (centres undefined): inhibition was half-maximal at 92 µM (IC50).
`NCc1nc2ccc(NC(=O)c3ccc(C(=O)c4ccccc4)cc3)cc2[nH]1` returned a half-maximal inhibitory concentration (IC50) of 46 µM.
Same read-out and setting: to `NCc1nc2ccc(NCc3ccccc3)cc2[nH]1` belongs 195 µM.
